Measurements as given in patent US5132402A, “Adsorbent, method for production thereof, and method for use thereof” (Agency of Industrial Science and Technology, priority 1987, dated 1992).
Where a SMILES comes first, the peptide text is derived from it. Bridges are numbered along the chain shown (N, C = ends).

Test: Solubility of the peptide in the phosphate buffer solution used for immobilization
Format: physicochemical
Settings: phosphate buffer solution (0.02 mol/liter) of pH 7.4
Procedure: (a) The immobilization procedure of Example 2(a) was repeated, except that 20 mg of the peptide obtained in Synthesizing Example 18 was used in place of 20 mg of the peptide obtained in Synthesizing Example 2.

- solubility in the phosphate buffer solution: low solubility
Structure (SMILES): CC(C)C[C@H](NC(=O)[C@H](Cc1ccc(O)cc1)NC(=O)[C@@H]1CCCN1C(=O)[C@@H](NC(=O)[C@H](CC(=O)O)NC(=O)[C@@H]1CCCN1C(=O)[C@@H]1CSSC[C@H](NC(=O)[C@@H](NC(=O)[C@H](Cc2ccc(O)cc2)NC(=O)[C@H](Cc2ccc(O)cc2)NC(=O)[C@@H](NC(=O)[C@H](Cc2c[nH]c3ccccc23)NC(=O)[C@H](Cc2c[nH]cn2)NC(=O)[C@H](CCCCN)NC(=O)[C@H](Cc2c[nH]c3ccccc23)NC(=O)CNC(=O)[C@H](CC(C)C)NC(=O)[C@@H](N)CC(C)C)C(C)C)[C@@H](C)O)C(=O)N1)[C@@H](C)O)C(=O)N[C@@H](CC(=O)O)C(=O)O [Synthesizing Example 18] (H-LLGWKHWVYYTCCPDTPYLD-OH; disulfide 12-13)
